Data taken from the METLIN SMRT retention time set (Domingo-Almenara et al. 2019).

Assay: gradient 5% acetonitrile 3 min, to 50% in 2 min, to 85% in 15 min, held 3 min, 100 µL/min
Settings: column: Zorbax Extend-C18 2.1 x 50 mm; eluents: water / acetonitrile, 0.1% formic acid
Procedure, shortened: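 Using water and acetonitrile that each contained 0.1% formic acid, mixtures of ~100 pure standards were separated at 100 μL/min on a Zorbax Extend-C18 column (2.1 × 50 mm, 1.8 μm). The HPLC fed a quadrupole time-of-flight mass spectrometer working in positive and negative ionization mode, with dead and dwell volumes of 40 μL and 900 μL. Data were acquired over 3 months. Retention time was read from computationally picked adduct peaks after manual inspection of each.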

Compound	RP-LC retention time
Fc1ccc(-c2noc(-c3nnc(NCCCN4CCOCC4)c4ccccc34)n2)cc1	700 s
CCOC(=O)c1noc2nc(C)nc(Nc3cccc(C)c3)c12	1170 s
CCn1c(=O)c2ccnn2c2ccc(C(=O)O)cc21	662 s
CCc1ccc(NC(=O)c2cc(C)n3nccc3n2)cc1	1030 s
Cc1cc(OCC(=O)N(Cc2ccc(N(C)C)cc2)C2CCS(=O)(=O)C2)ccc1Cl (stereo unspecified)	839 s
COc1cccc(NC(=O)c2cn3c(n2)CCCC3)c1	598 s
O=C(OCc1cc(-c2cccs2)on1)c1ncc(-c2ccccc2)o1	1060 s
Cc1cc(C)c2c(N3CCOCC3)nc(C(=O)NCc3cccc(F)c3)nc2n1	639 s
O=C(CCc1ccccc1)Nc1nnc(SCC(=O)c2ccccc2)s1	892 s
CN(C)c1ccc(-c2nc3cnccn3c2Nc2ccc3c(c2)OCO3)cc1	737 s
Cc1nc(C)c(C(=O)Nc2cccc(Cl)c2C)o1	731 s
CC12NC(Cc3ccccc31)c1ccccc12 (stereo unspecified)	670 s
CN(Cc1ccccc1)C(=O)CN1C(=O)C2CCCCN2c2ccc(S(=O)(=O)N(C)C)cc21 (stereo unspecified)	939 s
CCn1c(=O)sc2cc(S(=O)(=O)N3CCC(C(=O)Nc4ccc(C)cc4)CC3)ccc21	940 s
CCOC(=O)C(CC)n1cnc2c(cnn2-c2ccccc2)c1=O (stereo unspecified)	857 s
Cc1ccccc1NC(=O)c1ccc(=O)n(CCN2CCCC2)c1	584 s
O=C(CC1CCN(C(=O)c2ccc3oc(-c4ccccc4)nc3c2)CC1)NCc1ccco1	793 s
COc1nn(C)cc1C(=O)NCC(=O)Nc1cccc2nsnc12	636 s
CC(=O)N1CCc2cc(N3CC(C(=O)NCc4ccc(F)cc4Cl)CC3=O)ccc21 (stereo unspecified)	713 s
CNC(=O)C1CN(C(=O)c2ccccc2Cl)CC12CCCC2 (stereo unspecified)	665 s
CCOC(=O)C1CCN(C(=O)C2CCN(c3ccc(N4CCCC4)nn3)CC2)CC1	628 s
Cc1nc(Nc2nccc(-c3ccccc3)n2)nc2ccccc12	677 s
Fc1cccc(-c2nc(-c3cn(-c4ccccc4)nn3)no2)c1	1040 s
CS(=O)(=O)N1CCC(CNC(=O)C(=O)Nc2ccon2)CC1	609 s
CCOC(=O)c1cccc(NC(=O)NC2CCN(c3ccc(F)cc3)C2=O)c1 (stereo unspecified)	824 s
Cc1cccc(NC(=O)CSc2nc(=O)n(CCN(C)C)c3c2CCC3)c1	570 s

Compound	RP-LC retention time
COc1ccc(C2CC(=O)N(c3ccc(C)c(Cl)c3)C(=O)C2)cc1	1010 s
O=C(Cn1c(=O)c2cc(C3CC3)nn2c2ncccc21)NC1CCCC1	705 s
Cc1ccccc1NC(=O)N1CCN(Cc2cn(C)c3ccccc23)CC1	589 s
COc1ccc(-c2noc(CSc3nccn3-c3ccc(C)cc3)n2)cc1OC	856 s
Cc1ccc(NC(=O)N2CCN(c3cnn4c(C5CC5)nnc4c3)CC2)cc1	653 s
CCN1C(=O)c2cccnc2Sc2cc(NC(=O)c3ccc(C(C)C)cc3)ccc21	998 s
COc1cc(CN2CCCC2c2cc(C(C)C)no2)ccc1OCC(N)=O (stereo unspecified)	584 s
COc1ccc(Br)c2c1-c1nc(NC(=O)c3cccc(C)c3)sc1C2	1140 s
CCOC(=O)C1CCN(c2cc3c(cc2NC(=O)NCc2ccc(C)cc2)n(C)c(=O)n3C)CC1	842 s
O=C(c1n[nH]c2ccccc12)N1CCCC1c1nc(-c2ccc(F)cc2F)no1 (stereo unspecified)	930 s
O=C1CCN(C(=O)C2(c3ccccc3)CC2)CCCCCCN1	721 s
CCN1C(=O)c2cc(S(=O)(=O)Nc3cccc(C)c3C)ccc2Oc2cccnc21	1030 s
CCCNC(=O)N1CC(Oc2cccc(-c3nc(-c4ccccc4)no3)c2)C1	1040 s
CCCn1cc(S(=O)(=O)Nc2ccc(OC)c(OC)c2)c2cccnc21	876 s
Cc1cc(C2CCCN2C(=O)Cc2c(F)cccc2Cl)on1 (stereo unspecified)	848 s
COc1cccc(C(=O)N2CCC3(CC2)c2nccn2-c2ccccc2CN3C)c1	612 s
O=C(c1cccs1)N1CCCCC1c1nncn1-c1ccccc1 (stereo unspecified)	705 s
Cc1ccc(-c2nnc(-c3ccc(N4CCC(C)CC4)nc3)o2)cc1	1310 s
Cc1ccccc1CNC(=O)C1(C)CCCN(S(=O)(=O)c2ccccc2)C1 (stereo unspecified)	944 s
Cc1ccc(-c2noc(Cn3ncn4nc(-c5ccccc5Cl)cc4c3=O)n2)cc1	1200 s
O=c1c2scc(-c3ccc(Br)cc3)c2ncn1Cc1ccc(F)cc1	1180 s
Cc1ccc(-c2ncc(C(=O)Nc3cc(F)cc(F)c3)c(-c3ccncc3)n2)cc1	1060 s
Cc1cc(C(=O)N2CCN(c3cccc(Cl)c3)CC2)n(-c2ccccc2)n1	1070 s
O=C(NCCc1csc(-c2cccs2)n1)C1CCN(S(=O)(=O)c2cccs2)CC1	852 s
Cc1ccc(-c2noc(Cn3ccn(-c4ccccc4)c(=O)c3=O)n2)cc1	844 s

Results, then the compound that gave them:

RP-LC retention time	Compound
1160 s	O=c1c2cc(-c3ccc(Br)cc3)nn2cnn1Cc1nc(-c2ccc3c(c2)OCO3)no1
686 s	CN(C)c1nc2ncn3c(=O)n(CC(=O)Nc4cccc(F)c4)nc3c2s1
1170 s	Cc1ccc(NC(=O)CCc2nc(-c3ccc(N4CCCC4)cc3)no2)c(Br)c1
818 s	O=c1c(NCCC2=CCCCC2)nc2ccncc2n1Cc1ccccc1
1110 s	CCc1ccc(Oc2cc(N3CCC(C(=O)NC4CCCCCC4)CC3)ncn2)cc1
751 s	CCNC(=O)c1nc(C(=O)NCc2ccc(F)cc2)cs1
919 s	CS(=O)(=O)N1CCC(C(=O)NCCc2ccccc2)Oc2ccc(Cl)cc21 (stereo unspecified)
626 s	CC(C)N1CCN(C(=O)c2cnc(-c3ccccc3)nc2-c2ccncc2)CC1
777 s	O=C(NCc1nc(-c2ccc(N3CCCCC3)cc2)no1)c1ccco1
756 s	CCOC(=O)c1ccc(NC(=O)Cc2csc3nc(-c4ccc(OC)c(OC)c4)cn23)cc1
737 s	CCCc1noc(-c2cccnc2N2CCCN(Cc3ccccc3Cl)CC2)n1
1120 s	O=C(NC1CCCC1)C1CCCN(S(=O)(=O)c2cc(-c3noc(C4CCCC4)n3)cs2)C1 (stereo unspecified)
744 s	CC(C)NC(=O)CN1C(=O)COc2ccc(C(=O)N3CCc4ccccc4C3)cc21
675 s	CC(C)n1cnc2cc(CNC(=O)c3cccc(C(F)(F)F)c3)ccc21
804 s	COc1ccc(OC)c(NS(=O)(=O)c2cc3c4c(c2)CCC(=O)N4CCC3)c1
826 s	Cc1noc(CN2N=C(C(=O)N3CCC(C)CC3)S(=O)(=O)c3ccccc32)n1
1240 s	CC(C)(C)c1ccc2c(c1)N(Cc1nc(-c3cccc(F)c3)no1)C(=O)CO2
1030 s	CCCCOc1ccc(NC(=O)c2oc3cc(C)c(Cl)cc3c2C)c2cccnc12
801 s	CCCCC(=O)Nc1nc(-c2ccc3c(c2)NC(=O)CO3)cs1
913 s	COc1ccc(-c2nnc(Cc3nc(-c4cccs4)no3)o2)cc1

RP-LC retention time	Compound
873 s	CCc1ccc(-c2cc(C(=O)N3CCCN(c4ccc(=O)n(-c5ccc(C)cc5)n4)CC3)[nH]n2)cc1
660 s	CCCC(=O)NC1CCN(c2ccccc2)C1=O (stereo unspecified)
645 s	Cc1c(Cl)cccc1NC(=O)CSc1ccc(N2CCCC(C(=O)NC3CC3)C2)nn1 (stereo unspecified)
890 s	Cc1nc(N2CCOCC2)c2c(C(=O)Nc3cccc(Cl)c3)c(C)oc2n1
758 s	Cn1cnc2c(C(=O)N3CCCC3)nn(-c3ccc(Cl)cc3)c2c1=O
629 s	Cn1cnnc1-c1nn(C)c2c1CN(C(=O)CCc1cc(Cl)no1)CC2
612 s	CCc1ccccc1S(=O)(=O)N1CCc2nc[nH]c2C1
680 s	Cc1ccc2c(Nc3ccc(F)c(F)c3)c(C(=O)N3CCCC3)cnc2n1
727 s	Cc1noc(-c2ccc(NC(=O)C3CC(=O)N(c4ccccc4)C3)cc2)n1 (stereo unspecified)
602 s	CCN(CC)S(=O)(=O)c1ccc2c(c1)ncn2CCC(=O)N1CCN(c2ccccn2)CC1
652 s	CCc1c(C2CCN(C(=O)c3ccnn3CC)CC2)noc1N
680 s	Nc1o[nH]c(=O)c1C1CCCCC1
637 s	O=C(CNc1ccccc1)Nc1nc(-c2ccccc2)cs1
633 s	O=C(CCc1ccccc1)NC1CCN(c2nnc3ccccn23)CC1
864 s	CCc1ccc(NS(=O)(=O)c2cc3c(s2)CCN(C(=O)C2CC2)C3)cc1
1130 s	Cc1cccc(Nc2nc(-c3ccc(C(C)C)cc3)cs2)n1
775 s	O=C(Nc1cccc2nsnc12)C1CCN(S(=O)(=O)N2CCOCC2)CC1
850 s	Cc1cc(C)n2nc(SCC(=O)Nc3ccc(Br)cc3F)nc2n1
704 s	Cc1ccccc1NC(=O)N(C)CC1CCOC1 (stereo unspecified)
604 s	CCn1ccc(C(=O)N2CCn3c(nnc3-c3ccccc3)C2)n1
